Patent US7192931B2, “Treatment of demyelinating diseases” (Neuren Pharmaceuticals Ltd., priority 2000, dated 2007)

What was measured:
[1] = system: dephosphorylated neurofilament-H; test: Axonal damage: dephosphorylated neurofilament-H in spinal cord (Western blot, immunohistochemistry); assay type: in vivo, mouse; conditions: for average relative densities of neurofilament-H: spinal cord homogenates, Western blot, 6.1 for rat IgG or PBS treated control mice; for effect on amount of axonal damage: spinal cord, dephosphorylated neurofilament-H
Description: Frozen sections from lumbar spinal cord (10 μm) were acetone-fixed and immunostained for oligodendrocyte content with an antibody against CNPase (Sigma; diluted 1:100); for axonal damage with an antibody against non-phosphorylated neurofilament-H (SM 1-32; Stemberger Monoclonals Incorporated, Lutherville, Md., USA; diluted 1:1000), and for GluR2 and NR1 content using mouse mAbs obtained from Zymed Laboratories Inc., Carlton, San Francisco, Calif. Antibody staining was visualized with an avidin:biotinylated enzyme complex (Vector Laboratories, Burlingame, Calif., USA). Sections were viewed under a light microscope, and cells stained with the anti-CNPase and SM 1-32 antibodies were counted.
PBS-perfused spinal cords were homogenized in lysis buffer (50 mM Tris pH 7.4, 100 μM EDTA, 0.25 M sucrose, 1% sodium dodecyl sulfate [SDS], 1% Nonidet P-40 [NP40], 1 μg/mL leupeptin, 1 μg/mL pepstatin A, and 100 μM phenylmethylsulfonylfluoride) at 4° C. using a motor-driven homogenizer (Virtus, Gardiner, N.Y.). Spinal cord lysates from each group of mice were pooled and centrifuged at 10000 g for 10 minutes at 4° C. to remove tissue debris. Protein concentrations of the supernatants were determined as described (Peterson, 1983), and 100 μg of protein resolved on 10% polyacrylamide SDS-gels under reducing conditions and then electrophoretically transferred to Hybond C Extra nitrocellulose membranes (Amersham Life Science, England). The membranes were blocked with 3% bovine serum albumin in TBS-T (20 mM Tris, 137 mM NaCl, pH 7.6 containing 0.1% Tween-20) for 2 hours at room temperature. Immunodetection was accomplished by incubation overnight at 4° C. with SM1-32 (1:500 dilution), anti-CNPase (1:100 dilution) antibody, or anti-GluR2 and NR1 mAbs (1:200 dilution). The membranes were washed thrice with TBS-T and incubated with horseradish peroxidase-conjugated anti-mouse IgG (Sigma) diluted 1:5000 in TBS-T. Immunoreactivity was detected by Enhanced Chemiluminescence (Amersham International plc. England) and autoradiography.

[2] = system: C57Bl/6 mice with MOG35-55 peptide-induced EAE; test: Clinical scoring of MOG35-55-induced EAE; assay type: in vivo, mouse; conditions: for effectiveness of prolonged treatment on disease severity / effect on advanced EAE (clinical symptoms): advanced disease; for effectiveness of prolonged treatment on disease severity: prolonged treatment from day 60 (FIG. 1C); for effect on advanced EAE (clinical symptoms): mAb three injections from day 51, neuroprotectors 7 days from day 60 (FIG. 1B); for effect on development of EAE (clinical symptoms): early disease, treatment from day 35 (FIG. 1A)
Description: C57Bl/6 mice (8–10 week old) were injected subcutaneously in one flank with 300 μg of MOG35-55 peptide ([…]: SEQ ID NO:1) synthesized by Mimotapes Pty Ltd, Clayton, Australia and emulsified in CFA containing 500 μg of Mycobacterium tuberculosis H37Ra (DIFCO Laboratories, Detrit, USA). They also received 500 ng of pertussis toxin (List Biological Laboratories, CA, USA) in 200 μl PBS intravenously via the tail vein, followed 48 hours later by a second dose. A second injection of MOG peptide was given in the absence of pertussis toxin one week later in the opposite flank, as described previously (Kanwar et al., 2000b).
Two treatment protocols were employed, involving the treatment of early disease, versus advanced disease. For early disease, reagents were administered at day 35 (following MOG injection). Antibody was administered thrice on alternate days, whereas neuroprotectors were given daily for 6 days, where 50% of reagent was given ip and 50% iv. In the treatment of advanced disease, therapy as above was initiated at day 60, with either three or eight anti-MAdCAM-1 mAb injections, and neuroprotectors given daily for either 7 or 18 days.
The mice were monitored daily and scored according to the following scale: 0, no clinical signs of EAE; 1, limp tail; 2, partial hind limb paralysis; 3, complete hind limb paralysis; 4, complete hind limb and partial fore limb paralysis; 5, paralysis extending to diaphragm; 6, hind and fore limb paralysis; 7, death due to EAE. Paralysis extending to the diaphragm was denoted as difficulty in remaining upright. […] The daily mean clinical score for each group is the mean disease score of at least five mice. The body weight of animals was measured regularly throughout the experiments. The expanded disability status scale for EAE treated mice was scored using an earlier published scoring system (Villoslada et al. 2000).
The rat hybridoma MECA-367 (rat IgG2a),5 which secretes a mAb against mouse MAdCAM-1 was either provided by Dr Eugene Butcher, Stanford University, Stanford, Calif. (FIGS. 1A and B), or obtained directly from the American Type Culture Collection, Rockville, Md. (FIG. 1C, and remainder of studies). Rat IgG obtained from Sigma Co., USA, served as a control. Antibodies were administered into the tail vein (70% of mAb) and intraperitoneally (30% of mAb) at 10 mg/Kg separately or in combination on alternate days at the time points indicated (FIGS. 1–4). The rat IgG control antibody was also administered at 10 mg/Kg. Backbones from sacrificed mice were frozen in isopentane at −70° C. Transverse 10 μm sections made through the spinal cord of control and diseased mice, in each case made at the same levels of the cord, were mounted on poly L-lysine-coated slides, and stained with haematoxylin and eosin.

Compound	average relative densities of neurofilament-H [1]	effect on amount of axonal damage [1]	effectiveness of prolonged treatment on disease severity [2]	effect on advanced EAE (clinical symptoms) [2]	effect on development of EAE (clinical symptoms) [2]
NS(=O)(=O)c1cccc2c1c([N+](=O)[O-])cc1nc(O)c(O)nc12 [NBQX, 2,3-dihydroxy-6-nitro-7-sulfamoylbenzo(f)quinoxaline]	3.5	almost halved the amount of axonal damage	NBQX+GPE+anti-MAdCAM-1>NBQX+GPE>NBQX>GPE	only caused temporary remission	suppressed EAE, but to a greater extent than achieved with GPE
Gly-Pro-Glu [GPE]	3.2	almost halved the amount of axonal damage	NBQX+GPE+anti-MAdCAM-1>NBQX+GPE>NBQX>GPE	only caused temporary remission	suppressed EAE, up to 27 days after suspension of treatment
